According to patent US20060069132A1, “Azolecarboxamide herbicides” (priority 2004, published 2006):

Experiments:
morningglory (IPOCO) = experiment: Test J Compounds 2 and 6 alone and in combination with other herbicides, foliage spray; assay type: in vivo, Ipomoea coccinea; parameters: key: 0 = no effect, 100 = complete control; settings: applied alone
Excerpt: Seeds of test plants consisting of barnyardgrass (ECHCG; Echinochloa crus-galli (L.) Beauv.), blackgrass (ALOMY; Alopecurus myosuroides Huds.), Surinam grass (BRADC; Urochloa decumbens (Staph) R. D. Webster, previously named Brachiaria decumbens Stapf), cocklebur (XANST, Xanthium strumarium L.), corn (ZEAMD, Zea mays L. cv. ‘Pioneer 33G26’), large crabgrass (DIGSA, Digitaria sanguinalis (L.) Scop.), giant foxtail (SETFA, Setaria faberi Herrm.), lambsquarters (CHEAL, Chenopodium album L.), morningglory (IPOCO, Ipomoea coccinea L.), pigweed (AMARE, Amaranthus retroflexus L.), velvetleaf (ABUTH, Abutilon theophrasti Medik.) wheat (TRZAS, Triticum aestivum L. cv. ‘Recital’) and wild oat (AVEFA, Avena fatua L.) were planted in Redi-Earth® planting medium (Scotts Company, 14111 Scottslawn Road, Marysville, Ohio 43041) comprising spaghnum peat moss and vermiculite. Seeds of small-seeded species were planted about 1 cm deep; larger seeds were planted about 2.5 cm deep. Plants were grown in a greenhouse using supplemental lighting to maintain a photoperiod of about 14 hours; daytime and nighttime temperatures were about 24-30° C. and 22-25° C., respectively. Balanced fertilizer was applied through the watering system. […] Also listed in Table J are the expected effects for the mixtures calculated using Colby's Equation.

[1] = tested on: transplanted rice seedlings; experiment: Test D flooded paddy test; assay type: in vivo, Oryza sativa; settings: 21 days, scale 0 to 100
Excerpt: (§1) Three plastic pots (ca. 16-cm diameter) per rate were partially filled with sterilized Tama silt loam soil comprising a 35:50:15 ratio of sand, silt and clay and 2.6% organic matter. Separate plantings for each of the three pots were as follows. Seeds from the U.S. of ducksalad (Heteranthera limosa (Sw.) Willd.), smallflower umbrella sedge (Cyperus difformis L.) and purple redstem (Ammannia coccinea Rottb.), were planted into one 16-cm pot for each rate. Seeds from the U.S. of rice flatsedge (Cyperus iria L.), bearded sprangletop (Leptochloa fascicularis (Lam.) Gray), one stand of 9 or 10 water seeded rice seedlings (Oryza sativa L. cv. ‘Japonica—M202’), and one stand of 6 transplanted rice seedlings (Oryza sativa L. cv. ‘Japonica—M202’) were planted into one 16-cm pot for each rate. Seeds from the U.S. of barnyardgrass (Echinochloa crus-galli (L.) Beauv.), late watergrass (Echinochloa oryzicola Vasinger), early watergrass (Echinochloa oryzoides (Ard.) Fritsch) and junglerice (Echinochloa colona (L.) Link) were planted into one 16-cm pot for each rate. Plantings were sequential so that crop and weed species were at the 2.0 to 2.5-leaf stage at time of treatment.
(§2) Potted plants were grown in a greenhouse with day/night temperature settings of 29.5/26.7° C., and supplemental balanced lighting was provided to maintain a 16-hour photoperiod. Test pots were maintained in the greenhouse until test completion.
(§3) At time of treatment, test pots were flooded to 3 cm above the soil surface, treated by application of test compounds directly to the paddy water, and then maintained at that water depth for the duration of the test. Effects of treatments on rice and weeds were visually evaluated by comparison to untreated controls after 21 days. Plant response ratings are reported on a 0 to 100 scale; where 0 is no effect and 100 is complete control. A dash (-) response means no test result.

[2] = tested on: smallflower umbrella sedge; experiment: Test D flooded paddy test; assay type: in vivo, Cyperus difformis; settings: 21 days, scale 0 to 100
Excerpt: as §1, §2, §3

spotted spurge = experiment: Test E pre-/postemergence herbicide test; assay type: in vivo, Euphorbia maculata
Excerpt: Seeds of plant species selected from bipinnate beggarticks (Bidens bipinnata L.), hairy beggarticks (Bidens radiata Thuill.), bermudagrass (Cynodon dactylon (L.) Pers.), Surinam grass (Urochloa decumbens (Staph) R. D. Webster, previously named Brachiaria decumbens Stapf), large crabgrass (Digitaria sanguinalis (L.) Scop.), green foxtail (Setaria viridis (L.) P. Beauv.), goosegrass (Eleusine indica (L.) Gaertn.), johnsongrass (Sorghum halepense (L.) Pers.), kochia (Kochia scoparia (L.) Schrad.), pitted morningglory (Ipomoea lacunosa L.), purple nutsedge (Cyperus rotundus L.), common ragweed (Ambrosia elatior L.), mustard (Brassica nigra (L.) W. D. J. Koch), guineagrass (Panicum maximum Jacq.), dallisgrass (Paspalum dilatatum Poir.), barnyardgrass (Echinochloa crus-galli (L). P. Beauv.), southern sandbur (Cenchrus echinatus L.), common sowthistle (Sonchus oleraceous L.), prickly sida (Sida spinosa L.), Italian ryegrass (Lolium multiflorum Lam.), common purslane (Portulaca oleracea L.), broadleaf signalgrass (Brachiaria platyphylla (Griseb.) Nash), common groundsel (Senecio vulgaris L.), common chickweed (Stellaria media (L.) Vill/Cyr.), tropical spiderwort (Commelina benghalensis L.), annual bluegrass (Poa annua L.), downy bromegrass (Bromus tectorum L.), itchgrass (Rottboellia cochinchinensis (L.) L.f.), quackgrass (Elytrigia repens (L.) Nevski), Canada horseweed (Erigeron Canadensis L.), field bindweed (Convolvulus arvensis L.), spotted spurge (Euphorbia maculata L.), common mallow (Malva sylvestris (=s silvestris) L.), and Russian thistle (Salsola kali L. ssp. Ruthenica (Iljin) Soo) were planted and treated preemergence with test chemicals formulated in a non-phytotoxic solvent mixture which included a surfactant.
At the same time, plants selected from these weed species were treated with postemergence applications of some of the test chemicals formulated in the same manner. […] Treated plants and controls were maintained in a greenhouse for 12 to 14 days, after which time all species were compared to controls and visually evaluated. […]

## CCn1nc(C(C)(C)C)cc1C(=O)Nc1cc(C(=O)N(C)C)ccc1F [Compound 6, N-[5-[(dimethylamino)carbonyl]-2-fluorophenyl]-3-(1,1-dimethylethyl)-1-ethyl-1H-pyrazole-5-carboxamide]
Morningglory (IPOCO); 62 g a.i./ha
  IPOCO Obsd.: 22
Morningglory (IPOCO); 125 g a.i./ha
  IPOCO Obsd.: 28

## CCNC(=O)c1ccnc(NC(=O)c2cc(C(C)(C)C)nn2CC)c1 [Compound 152]
[1]; 8 g ai/ha
  Plant response rating, Rice, Transplanted: 0
[1]; 16 g ai/ha
  Plant response rating, Rice, Transplanted: 20
[1]; 32 g ai/ha
  Plant response rating, Rice, Transplanted: 25
[1]; 64 g ai/ha
  Plant response rating, Rice, Transplanted: 40
[1]; 125 g ai/ha
  Plant response rating, Rice, Transplanted: 45
[2]; 8 g ai/ha
  Plant response rating, Sedge, Umbrella: 0
[2]; 16 g ai/ha
  Plant response rating, Sedge, Umbrella: 70
[2]; 32 g ai/ha
  Plant response rating, Sedge, Umbrella: 75
[2]; 64 g ai/ha
  Plant response rating, Sedge, Umbrella: 85
[2]; 125 g ai/ha
  Plant response rating, Sedge, Umbrella: 95
Spotted spurge; Postemergence, 500 g ai/ha, scale 0 to 100
  Plant response rating, Spurge, Spotted: 95
Spotted spurge; Preemergence, 125 g ai/ha, scale 0 to 100
  Plant response rating, Spurge, Spotted: 100
Spotted spurge; Preemergence, 500 g ai/ha, scale 0 (no effect) to 100 (complete control)
  Plant response rating, Spurge, Spotted: 100

## CCc1nc(C(C)(C)C)sc1C(=O)Nc1cccc(C(=O)NCC2CC2)n1 [Compound 215]
[1]; 125 g ai/ha
  Plant response rating, Rice, Transplanted: 0
[1]; 250 g ai/ha
  Plant response rating, Rice, Transplanted: 10
[1]; 500 g ai/ha
  Plant response rating, Rice, Transplanted: 20
[1]; 750 g ai/ha
  Plant response rating, Rice, Transplanted: 20
[1]; 1000 g ai/ha
  Plant response rating, Rice, Transplanted: 35
[2]; 125 g ai/ha
  Plant response rating, Sedge, Umbrella: 20
[2]; 250 g ai/ha
  Plant response rating, Sedge, Umbrella: 95
[2]; 500 g ai/ha
  Plant response rating, Sedge, Umbrella: 95
[2]; 750 g ai/ha
  Plant response rating, Sedge, Umbrella: 95
[2]; 1000 g ai/ha
  Plant response rating, Sedge, Umbrella: 100
